# Data published in patent US9211485B2, “Method for producing crystalline active ingredient particles” (Jesalis Pharma GmbH, priority 2010, dated 2015).
# Columns and labels:
# Format in all cases: physicochemical
# [1] = Agglomeration factor: d90 (Ultra Turrax stirrer) / d90 (ultrasound sonotrode); details: d90(agglomerated particles)/d90(non-agglomerated particles)
# Text: The degree of agglomeration of the crystallized active ingredient particles is described by the agglomeration factor (AGF). This is defined by the quotient of the diameter of the agglomerated particles and of the diameter of the non-agglomerated particles. This method is most informative for agglomeration when comparing the d90 values. The agglomeration factor within the meaning of the present invention is therefore defined as follows: Agglomeration factor=d90(agglomerated particles)/d90(non-agglomerated particles)
# These two d90 values are determined by different energy input into the sample to be tested.
# With a high input of energy, existing agglomerates decompose and the following particle size measurement delivers the d90 of the non-agglomerated particles. […]
# With a low energy input on the other hand agglomerates are largely spared and the following particle size measurement delivers the d90(agglomerated particles). […] The thus-obtained suspension is added dropwise accompanied by stirring to the measuring vessel which contains filtered surfactant solution, until the obscuration reaches 10% and the particle size distribution is determined by the above-described laser diffraction. An average value is determined from five measurements. […]
# [2] = Crystallinity by X-ray powder diffractometry (XRPD) relative to a reference material; details: relative to reference sample
# Experimental: The crystallinity is determined by means of X-ray powder diffractometry (XRPD) (apparatus: Siemens D8, fixed sample position). After background correction the integral intensities in the X-ray diffractogram are compared with those of a reference material. This reference material can for example be a conventional precipitation product or a product according to a different production method with known crystallinity and granulation. Thus the crystallinity is a relative value which characterizes the degree of order compared with a reference sample. The relationship of the integral reflex intensities of particle sample and reference sample is therefore the quantitative expression of its difference in crystallinity.
# [3] = Particle size distribution by laser diffraction, wet measurement (Malvern Mastersizer E); details: for d50 / d90 / d10: dried product, laser diffraction wet measurement; for d50: average particle size; for d10: vol.-%; for span: span=(d90−d10)/d50
# Experimental: The particle size and the particle size distribution (grain-size distribution) are determined with the help of a customary laser diffraction in a wet measurement which delivers a distribution curve of the particle sizes (Malvern System, Mastersizer E, wet measurement in the cuvette). dx means that x volume percent (vol.-%) of the particles have a diameter which is smaller than the given value. With a d50 value of 1 μm 50 vol.-% of the particles thus have a diameter of less than 1 μm (micrometer). The d50 value is a measure of the average (volume average) particle diameter and is therefore also called average particle diameter. With a d10 of 15 μm and a d90 of 50 μm 10 vol.-% of the particles have a diameter of less than 15 μm and 90 vol.-% of the particles have a diameter of less than 50 μm.
# Sample preparation for wet measurement of the particle size and particle size distribution: 12.5 mg sample is dispersed in 25 ml aqueous surfactant solution (0.1% Tween 80 in water, saturated with active ingredient and filtered over a 0.2 μm filter) by means of ultrasound sonotrode (Hielscher, d=7 mm, 30% output) for 4 min. The thus-obtained suspension is added dropwise, accompanied by stirring, to the measuring vessel which contains filtered surfactant solution, until the obscuration (clouding) reaches 10% and the particle size distribution is determined by the above-described laser diffraction. An average value is determined from five measurements.
# An advantage of the method according to embodiments of the invention is the generation of a very narrow particle size distribution. Additionally, largely agglomerate-free particles are obtained. This is achieved by the synchronous counterrotation of destructive grinding and ultrasound processes on the one hand and constructive crystal growth on the other hand. In the region of coarse grain sizes and agglomerates, above all the disintegration effect (grinding process and ultrasound) acts primarily in the direction of a reduction, and in the fine-grain region the crystal growth acts in the direction of an increase in the particle size. Thus, very narrow particle size distributions are achieved. The width of a particle size distribution (span) is defined as follows: span=(d90−d10)/d50.
AGF (agglomeration factor) [1],crystallinity [2],d50 [3],d90 [3],d10 [3],span [3],SMILES
1.3,100%,34 μm,64 μm,12 μm,1.5,"CC(=O)[C@H]1CC[C@H]2[C@@H]3CCC4=CC(=O)CC[C@]4(C)[C@H]3CC[C@]12C [Example 1, progesterone]"
1.1,100%,26 μm,45 μm,10 μm,1.3,"CC(=O)[C@H]1CC[C@H]2[C@@H]3CCC4=CC(=O)CC[C@]4(C)[C@H]3CC[C@]12C [Example 2, progesterone]"
